According to patent US20250186436A1 (4E Therapeutics, Inc., priority 2021, published 2025):
“And” between values parts separate entries of the source, which are not always exact repeats. Equal entries are not always repeated. Where two headings read alike, the source gives them in different places.

Tests used:
[1] = Plasma and brain concentrations, brain to plasma ratio in male CD1 mice (Example 3); type: in vivo; conditions: 2 h post dosing; for concentration at 2 h: male, CD1, mouse
[2] = PK study in male Sprague Dawley rats, IV 1 mg/kg and PO 10 mg/kg (Example 4); type: in vivo; conditions: for clearance: CLp; for Vd: Vss; for concentration at 24 h: plasma; for AUC(0-t): AUClast
[3] = Plasma and brain concentrations, brain:plasma ratio 24 hr after last of five daily 1 mg/kg PO doses (Example 6); type: in vivo, rats; conditions: for concentration at 24 h / Kp at 24 h: rat; for concentration at 24 h: oral, 1 mg/kg
From the text: Table 18 provides plasma and brain concentrations of 4ET-03-0053 at 24 hr after the last dose of five daily P0 doses.

[4] = tested on: IL-6 evoked grimace in ICR mice; assay: IL-6 evoked grimace test; type: in vivo; conditions: PO 1 hr prior to IL-6 (4ET-03-053: 10 mg/kg)
Procedure: Male and female Institute for Cancer Research (ICR) mice were used in these experiments. Mice were bred in house at University of Texas at Dallas and used at between 12 and 24 weeks of age. Mice were habituated to plexiglass boxes of approximately 4×6 inches in size with openable tops. Habituation took place over 2 days with animals exposed to the boxes for at least 30 min. A blinded observer scored baseline grimacing using the method previously described by Mogil and colleagues (Langford D J, et al. “Coding of facial expressions of pain in the laboratory mouse” Nat Methods 7:447-449 (2010)). On test day, mice were given test compounds 1 hr prior to injection of interleukin 6 (human recombinant IL-6, R&D Systems) which was given at a dose of 0.1 ng in saline via an intraplantar injection as described previously (Moy J K, et al. “The MNK-eIF4E Signaling Axis Contributes to Injury-Induced Nociceptive Plasticity and the Development of Chronic Pain” J Neurosci. 37:7481-7499 (2017)). Test compounds were given orally (PO) via a flexible oral gavage canula built for mice. 4ET-03-053 is efficacious in the IL-6 evoked grimace test in mice (PO; 10 mg/kg).
Effect sizes were calculated per mouse by subtracting the baseline grimace score from the sum of the grimace scores for 1 and 3 hr time points.

[5] = tested on: eIF4E phosphorylation in hDRGs; assay: p-eIF4E immunofluorescence in cultured human dorsal root ganglion cells (hDRGs); type: cell-based; conditions: immunofluorescence
Procedure: For all human DRG experiments, DRGs were recovered from organ donors at the Southwest Transplant Alliance under an IRB approved protocol at University of Texas at Dallas. DRGs were recovered within 3 hrs of cross clamp. DRGs were recovered and taken back to the University of Texas lab where they were cultured using the protocol described previously. Cultures were grown on glass coverslips for microscopy. Coverslips were coated with poly-D-lysine and laminin to improve neuronal adherence to the coverslips. Cultures of human DRG neurons were grown for 4-7 days prior to treatment with OSM. OSM treatment was done in culture media for a period of 30 min. Cells were stained with antibodies using the same protocol as described above for HEK293 cells. Imaging was done on an Olympus FV1200 microscope and image analysis was done with CellSens software. Statistical analysis was done with Graphpad Prism V8.
Human DRG recovery and other experimental protocols were the same as described herein.

[6] = SD rats, single PO 10 mg/kg, 10% DMA/PG, individual animals, 10 mg/kg
[7] = SD rats, single PO 10 mg/kg, 10% DMA/PG, mean (n = 3)
[8] = male SD rats, 1 mg/kg IV, individual animals, 1 mg/kg
[9] = male SD rats, 1 mg/kg IV, mean (n = 3)
[10] = male, Sprague Dawley, rat, in vivo, iv, 1 mg/kg
[11] = male, Sprague-Dawley, rat, in vivo, iv, 1 mg/kg
[12] = male, Sprague-Dawley, rat, in vivo, po, 10 mg/kg

SMILES: Cc1cc(Nc2cc(N)ncn2)c(=O)n2c1C(=O)NC21CCC2(CC2)CC1 [4ET-03-053, 6″-((6-Aminopyrimidin-4-yl)amino)-8″-methyl-2″H-dispiro[cyclopropane-1,1′-cyclohexane-4′,3″-imidazo[1,5-a]pyridine]-1″,5″-dione]
- Brain Tissue Homogenate Conc. ([1]; individual animals (n = 3)): 5.89 ng/mL and 6.41 ng/mL
- Plasma Conc. ([1]; individual animals (n = 3)): 584 ng/mL and 661 ng/mL
- concentration at 2 h ([1]; brain tissue homogenate, individual animals (n = 3), read-out: Brain Tissue Homogenate Conc.): 4.61 ng/mL
- concentration at 2 h ([1]; brain tissue homogenate, mean, read-out: Brain Tissue Homogenate Conc., Mean): 5.64 ng/mL
- concentration at 2 h ([1]; brain tissue, read-out: Brain Mean Tissue): 22.5 ng/g
- concentration at 2 h ([1]; plasma, individual animals (n = 3), read-out: Plasma Conc.): 488 ng/mL
- concentration at 2 h ([1]; plasma, mean, read-out: Plasma Conc., Mean): 578 ng/mL
- Kp at 2 h ([1]; mouse, brain/plasma, read-out: Mean Tissue/Plasma Conc. Ratio (brain to plasma ratio)): 0.039
- Tlast ([2]; SD rats, single PO 10 mg/kg, 10% DMA/PG, individual animals): 24.0 h
- AUCinf/D [2, 6]: 23000 kg·h/kL and 24504 kg·h/kL and 18751 kg·h/kL
- Clast [2, 6]: 2710 ng/mL and 2950 ng/mL
- Cmax/D [2, 6]: 1440 kg/kL and 1960 kg/kL and 1840 kg/kL
- F [2, 6]: 44.7% and 47.6% and 36.4%
- AUCinf/D [2, 7]: 22085 kg·h/kL
- Cmax/D [2, 7]: 1747 kg/kL
- F [2, 7]: 42.9%
- Tlast [2, 7]: 24.0 h
- Tlast ([2]; male SD rats, 1 mg/kg IV, individual animals): 24.0 h
- AUCinf [2, 8]: 55049 ng·h/mL and 46264 ng·h/mL
- AUCinf/D [2, 8]: 53103 kg·h/kL and 55049 kg·h/kL and 46264 kg·h/kL
- Clast [2, 8]: 302 ng/mL and 336 ng/mL
- Co [2, 8]: 8106 ng/mL and 7353 ng/mL and 7726 ng/mL
- AUCinf/D [2, 9]: 51472 kg·h/kL
- Co [2, 9]: 7728 ng/mL
- Tlast [2, 9]: 24.0 h
- C0 [2, 10]: 7730 ng/mL
- CLp [2, 10]: 0.326 mL/min/kg
- clearance [2, 10]: 0.33 mL/min/kg
- Vd [2, 10]: 0.15 L/kg
- half-life ([2]; male, Sprague Dawley, rat, in vivo, iv, 1 mg/kg, t1/2): 6.36 h
- AUC(0-inf) ([2]; male, Sprague Dawley, rat, in vivo, iv, 1 mg/kg, total systemic exposure (AUCinf)): 51500 ng·h/mL
- bioavailability ([2]; male, Sprague Dawley, rat, in vivo, po, 10 mg/kg): 42.9%
- Cmax ([2]; male, Sprague Dawley, rat, in vivo, po, 10 mg/kg, peak plasma concentration (Cmax)): 17500 ng/mL
- half-life ([2]; male, Sprague Dawley, rat, in vivo, po, 10 mg/kg, terminal half-life (t1/2)): 9.1 h
- AUC(0-inf) ([2]; male, Sprague Dawley, rat, in vivo, po, 10 mg/kg, total systemic exposure (AUCinf)): 221000 ng·h/mL
- concentration at 24 h ([2]; male, Sprague Dawley, rat, iv, 1 mg/kg, male SD rats, 1 mg/kg IV, at 24 h, mean (n = 3), read-out: Clast): 350 ng/mL
- concentration at 24 h ([2]; male, Sprague Dawley, rat, po, 10 mg/kg, rats, 10 mg/kg PO, 10% DMA/PG, at 24 h, read-out: last measurable concentration): 2620 ng/mL
- AUC(0-t) [2, 11]: 51100 ng·h/mL
- clearance [2, 11]: 0.314 mL/min/kg
- MRT inf ([2]; male, Sprague-Dawley, rat, in vivo, iv, 1 mg/kg, MRTinf): 7.24 h
- Vd [2, 11]: 0.136 L/kg
- AUC(0-inf) ([2]; male, Sprague-Dawley, rat, in vivo, iv, 1 mg/kg, male SD rats, 1 mg/kg IV, individual animals, read-out: AUCinf): 53100 ng·h/mL
- AUC(0-inf) ([2]; male, Sprague-Dawley, rat, in vivo, iv, 1 mg/kg, male SD rats, 1 mg/kg IV, mean (n = 3), read-out: AUCinf): 51500 ng·h/mL
- half-life ([2]; male, Sprague-Dawley, rat, in vivo, iv, 1 mg/kg, t1/2): 6.63 h
- Tmax [2, 12]: 0.5 h
- AUC(0-t) [2, 12]: 194000 ng·h/mL
- Cmax ([2]; male, Sprague-Dawley, rat, in vivo, po, 10 mg/kg, Cmax): 14400 ng/mL
- half-life ([2]; male, Sprague-Dawley, rat, in vivo, po, 10 mg/kg, t1/2): 9.07 h
- concentration at 24 h ([2]; male, Sprague-Dawley, rat, iv, 1 mg/kg, male SD rats, 1 mg/kg IV, individual animals, read-out: Clast): 411 ng/mL
- concentration at 24 h ([2]; male, Sprague-Dawley, rat, po, 10 mg/kg, SD rats, single PO 10 mg/kg, 10% DMA/PG, individual animals, read-out: Clast): 2210 ng/mL
- concentration at 24 h ([2]; male, Sprague-Dawley, rat, po, 10 mg/kg, SD rats, single PO 10 mg/kg, 10% DMA/PG, mean (n = 3), read-out: Clast): 2620 ng/mL
- clinical observation after dosing ([2]; rats, 1 mg/kg IV): lying on side and immobile with heavy breathing for about 10 min
- clinical observation after dosing ([2]; rats, 1 mg/kg IV, 1 mg/kg): The second animal died right after a slow IV injection
- time to peak plasma concentration ([2]; rats, 10 mg/kg PO, 10% DMA/PG): ≤ 30 m
- concentration at 24 h ([3]; male, Sprague-Dawley, brain homogenate, rats, brain homogenate, 24 hr after the last 1 mg/kg PO dose on day 5, individual animals (n = 3), read-out: Tissue Homogenate Conc.): 7.22 ng/mL
- concentration at 24 h ([3]; male, Sprague-Dawley, brain homogenate, rats, brain homogenate, 24 hr after the last 1 mg/kg PO dose on day 5, mean, read-out: Tissue Homogenate Conc., Mean): 6.02 ng/mL
- concentration at 24 h ([3]; male, Sprague-Dawley, brain, rats, brain, 24 hr after the last 1 mg/kg PO dose on day 5, read-out: Mean Tissue): 24.1 ng/g
- concentration at 24 h ([3]; male, Sprague-Dawley, plasma, rats, plasma, 24 hr after the last 1 mg/kg PO dose on day 5, individual animals (n = 3), read-out: Plasma Conc.): 318 ng/mL
- concentration at 24 h ([3]; male, Sprague-Dawley, plasma, rats, plasma, 24 hr after the last 1 mg/kg PO dose on day 5, mean, read-out: Plasma Conc., Mean): 278 ng/mL
- Kp at 24 h ([3]; male, Sprague-Dawley, rats, brain to plasma, 24 hr after the last 1 mg/kg PO dose on day 5, read-out: Mean Tissue/Plasma Conc. Ratio): 0.086
- Kp at 24 h ([3]; brain, Sprague-Dawley rats, 24 hr after the last dose of five daily PO doses of 1 mg/kg, read-out: brain:plasma ratio): 0.086
- Tissue Homogenate Conc. ([3]; rats, brain homogenate, 24 hr after the last 1 mg/kg PO dose on day 5, individual animals (n = 3)): 5.79 ng/mL and 5.04 ng/mL
- Plasma Conc. ([3]; rats, plasma, 24 hr after the last 1 mg/kg PO dose on day 5, individual animals (n = 3)): 291 ng/mL and 226 ng/mL
- efficacy in the IL-6 evoked grimace test [4]: efficacious
- phosphorylation of eIF4E in hDRGs ([5]; 30 min treatment): reduces phosphorylation of eIF4E
- phosphorylation of eIF4E in hDRGs in the presence of OSM ([5]; in presence of OSM): reduces phosphorylation of eIF4E
